From ChEMBL document CHEMBL1201862, “PubChem BioAssay data set” (2004)
Activity calls are given as the source filed them. Rule as the data show it, for most assays here: actives have a measured EC50 and inactives only a lower limit.

Tests used:
[1] = biological target: Dual specificity protein kinase CLK4 (Homo sapiens, UniProt Q9HAZ1); type: functional
[2] = biological target: Mitogen-activated protein kinase kinase kinase kinase 2 (Homo sapiens, UniProt Q12851); type: functional;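 also: measured as one member of a kinome-wide kinase panel, with MAP4K2 as the panel entry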
[3] = biological target: T1, Corticotropin-releasing factor receptor 2/Corticotropin-releasing factor-binding protein (Homo sapiens, UniProt P24387+Q13324); experiment: activators of CRF receptor 2 with binding protein – uHTS hits, confirmation (AID 602473); type: functional; settings: read-out: EC50_Mean
T1 sequence (Q13324 whole entry): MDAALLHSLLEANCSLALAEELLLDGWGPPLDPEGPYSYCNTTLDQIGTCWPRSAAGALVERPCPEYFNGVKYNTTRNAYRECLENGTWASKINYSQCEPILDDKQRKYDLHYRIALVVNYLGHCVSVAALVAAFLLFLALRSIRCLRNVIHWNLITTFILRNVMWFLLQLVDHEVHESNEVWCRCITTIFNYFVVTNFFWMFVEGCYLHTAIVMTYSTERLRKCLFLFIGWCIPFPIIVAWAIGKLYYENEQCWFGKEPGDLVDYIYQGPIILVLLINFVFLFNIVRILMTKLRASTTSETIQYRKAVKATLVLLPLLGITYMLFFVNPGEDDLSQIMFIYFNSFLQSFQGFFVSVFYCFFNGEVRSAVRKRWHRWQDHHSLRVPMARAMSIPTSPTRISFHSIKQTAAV
T1 sequence (P24387 whole entry): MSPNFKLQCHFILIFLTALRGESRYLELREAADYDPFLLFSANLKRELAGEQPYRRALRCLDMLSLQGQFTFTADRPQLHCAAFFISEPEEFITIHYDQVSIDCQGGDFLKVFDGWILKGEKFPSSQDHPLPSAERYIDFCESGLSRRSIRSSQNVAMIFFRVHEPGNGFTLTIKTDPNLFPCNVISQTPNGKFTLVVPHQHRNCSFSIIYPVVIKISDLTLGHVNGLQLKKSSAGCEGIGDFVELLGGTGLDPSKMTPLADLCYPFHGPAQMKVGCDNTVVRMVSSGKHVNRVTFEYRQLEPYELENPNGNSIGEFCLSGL

[4] = biological target: Latent membrane protein 1 (Human herpesvirus 4 (strain B95-8), UniProt P03230); experiment: LMP1 TES1 pathway selectivity over dsRED control – imaging, HEK293T, dual-color eGFP/dsRED, cherry-picks, selectivity assay for LMP1 NF-kB inhibitor project, dose response (AID 588398); type: functional, cell-based
HEK293 = experiment: EBV LMP1 TES2 canonical NF-kB signalling blockers – cell-based, HEK293, luciferase, cherry-pick, dose response (AID 588343); type: functional; settings: Homo sapiens
[5] = Luminescence Cell-Based Dose Confirmation HTS to Identify Inhibitors of Platelet Dense Granule Release. [Related pubchem assays: 1663 (Primary HTS), 1678 (Summary of Project)]; type: functional
[6] = biological target: Dual specificity tyrosine-phosphorylation-regulated kinase 1A (Rattus norvegicus, UniProt Q63470); type: biochemical, Homo sapiens
cells [7] = experiment: cells
[8] = luciferase inhibitors in kinase-free ADP detection – biochemical, luminescence, cherry-pick, set 02, artefact control for Dyrk1A inhibitor project, dose response (AID 588348)
[9] = biological target: Luciferin 4-monooxygenase (Photinus pyralis, UniProt P08659); experiment: inhibition of purified Photinus pyralis luciferase – biochemical, luminescence, dose response (AID 1891)
[10] = biological target: T2, Oxysterols receptor LXR-beta (Homo sapiens, UniProt P55055); type: functional, cell-based;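 also: Cell-based luminescence dose-response assay of agonist activity at LXR, run as a confirmatory counterscreen to a daf-12 agonist screen; HEK293 cells with Gal4-LXR fusion and GAL4-driven luciferase reporter; agonist potency from rising luciferase signal of a Gal4-LXR reporter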
T2 sequence (P55055 whole entry): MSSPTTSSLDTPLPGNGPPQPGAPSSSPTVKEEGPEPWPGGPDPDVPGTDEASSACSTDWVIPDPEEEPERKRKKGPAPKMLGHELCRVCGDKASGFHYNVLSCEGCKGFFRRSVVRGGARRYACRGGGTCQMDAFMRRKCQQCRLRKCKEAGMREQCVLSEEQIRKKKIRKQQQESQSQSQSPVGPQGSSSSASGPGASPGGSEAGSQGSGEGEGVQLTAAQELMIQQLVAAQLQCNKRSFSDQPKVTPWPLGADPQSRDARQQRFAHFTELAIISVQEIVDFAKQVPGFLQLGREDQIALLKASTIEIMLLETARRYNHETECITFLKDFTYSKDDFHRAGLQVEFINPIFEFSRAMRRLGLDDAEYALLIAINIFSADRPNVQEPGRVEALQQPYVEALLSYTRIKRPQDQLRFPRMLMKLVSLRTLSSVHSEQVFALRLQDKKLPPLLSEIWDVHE

[11] = alpha-synuclein stem-loop translation blockers – luminescence, H4 neuroglioblastoma cells, dose confirmation, confirmation (AID 2454); type: functional, cell-based;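 also: H4 neuroglioblastoma cells carrying an alpha-synuclein 5'UTR luciferase reporter; potency for inhibition of the luciferase signal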
[12] = luciferase reporter signal suppression in cells – H4 neuroglioma cells, luminescence, dose response (AID 1990); type: functional, cell-based
BJ [13] = experiment: cells; type: functional, cell-based; settings: Homo sapiens
[14] = luciferase reporter signal reduction – luminescence, H4-C neuroglioblastoma cells, dose response (AID 2458); type: functional, cell-based;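 also: H4 neuroglioblastoma cells stably carrying a luciferase reporter gene fusion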
cells [15] = type: functional, cell-based
[16] = alpha-synuclein stem-loop luciferase translation blockers – H4 neuroglioma cells, luminescence, confirmation (AID 1988); type: functional, cell-based
[17] = Luminescence Cell-Based Dose Response HTS to Identify Inhibitors of 5'UTR Stem-Loop Driven Prion Protein mRNA Translation in H4 Neuroglioblastoma Cells. [Related pubchem assays: 1827 (Project Summary), 1813 (Primary HTS)]; type: functional
[18] = DRD fibroblast viability loss – cell-based, non-viral oncogenic, luminescence, dose response (AID 1934); type: functional; settings: Homo sapiens
BJ [19] = experiment: growth inhibition of engineered Ras-driven BJ cells – cell-based, alamar blue fluorescence, cherrypicked samples, dose response (AID 2631); type: functional; settings: Homo sapiens;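 also: confirmatory dose-response assay in RAS-dependent BJ fibroblasts engineered with TERT, LT and ST, with cytotoxicity read by fluorescence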
BJ [20] = experiment: BJ-TERT-LT-ST fibroblast viability loss – cell-based, RAS-independent, luminescence, dose response (AID 1935); type: functional; settings: Homo sapiens;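 also: BJ fibroblasts immortalized with TERT plus LT and ST oncogenes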
[21] = Luminescence-based dose response cell-based high throughput screening assay for cytotoxic compounds using the IEC-6 intestinal epithelial cell line. [Related pubchem assays: 1858 (Summary AID.), 1825 (Counterscreen.), 1907 (Confirmation screen.)]; type: functional
BJ [22] = experiment: BJ-TERT fibroblast viability loss – cell-based, RAS-independent, luminescence, dose response (AID 1933); type: functional; settings: Homo sapiens
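For IC50 in this document: cell viability measured after two days of compound exposure.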

Chain of Mitogen-activated protein kinase kinase kinase kinase 2 (Q12851 whole entry): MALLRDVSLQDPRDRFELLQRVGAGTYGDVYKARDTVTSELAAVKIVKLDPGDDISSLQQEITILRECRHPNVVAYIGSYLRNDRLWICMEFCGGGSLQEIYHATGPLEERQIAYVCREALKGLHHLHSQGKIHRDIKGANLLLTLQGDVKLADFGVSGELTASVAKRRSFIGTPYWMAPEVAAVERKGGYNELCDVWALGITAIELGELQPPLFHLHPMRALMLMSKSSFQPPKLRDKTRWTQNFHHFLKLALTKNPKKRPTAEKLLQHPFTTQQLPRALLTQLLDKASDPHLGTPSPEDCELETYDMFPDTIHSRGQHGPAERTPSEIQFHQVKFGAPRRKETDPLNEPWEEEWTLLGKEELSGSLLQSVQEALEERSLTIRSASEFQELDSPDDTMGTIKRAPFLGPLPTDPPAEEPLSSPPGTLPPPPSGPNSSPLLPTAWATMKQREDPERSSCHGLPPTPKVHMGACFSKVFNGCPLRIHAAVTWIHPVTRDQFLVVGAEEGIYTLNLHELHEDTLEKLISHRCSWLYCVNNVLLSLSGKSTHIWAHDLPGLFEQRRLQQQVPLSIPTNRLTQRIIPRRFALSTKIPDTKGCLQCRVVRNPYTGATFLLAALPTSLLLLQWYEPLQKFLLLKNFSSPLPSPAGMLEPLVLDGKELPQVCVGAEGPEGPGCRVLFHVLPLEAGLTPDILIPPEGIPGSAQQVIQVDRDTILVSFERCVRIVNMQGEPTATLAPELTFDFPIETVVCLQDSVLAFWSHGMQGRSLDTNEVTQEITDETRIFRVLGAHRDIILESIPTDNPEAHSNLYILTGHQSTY
Chain of Luciferin 4-monooxygenase (P08659 whole entry, the tested form may be a part): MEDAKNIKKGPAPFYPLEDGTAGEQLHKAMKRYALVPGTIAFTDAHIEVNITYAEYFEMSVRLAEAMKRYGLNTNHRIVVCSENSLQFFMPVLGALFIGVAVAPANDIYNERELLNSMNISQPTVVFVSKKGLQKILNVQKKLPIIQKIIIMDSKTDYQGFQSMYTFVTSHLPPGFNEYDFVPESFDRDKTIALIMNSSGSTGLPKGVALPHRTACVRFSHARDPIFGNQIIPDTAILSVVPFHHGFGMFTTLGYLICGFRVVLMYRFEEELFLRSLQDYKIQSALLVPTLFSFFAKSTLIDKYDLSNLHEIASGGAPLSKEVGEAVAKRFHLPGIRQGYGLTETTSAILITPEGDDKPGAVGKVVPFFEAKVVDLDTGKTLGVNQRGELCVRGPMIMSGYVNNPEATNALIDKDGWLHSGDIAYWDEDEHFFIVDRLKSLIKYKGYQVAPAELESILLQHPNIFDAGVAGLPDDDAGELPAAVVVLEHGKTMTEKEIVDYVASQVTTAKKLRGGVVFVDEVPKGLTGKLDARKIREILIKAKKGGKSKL
Chain of Dual specificity protein kinase CLK4 (Q9HAZ1 whole entry): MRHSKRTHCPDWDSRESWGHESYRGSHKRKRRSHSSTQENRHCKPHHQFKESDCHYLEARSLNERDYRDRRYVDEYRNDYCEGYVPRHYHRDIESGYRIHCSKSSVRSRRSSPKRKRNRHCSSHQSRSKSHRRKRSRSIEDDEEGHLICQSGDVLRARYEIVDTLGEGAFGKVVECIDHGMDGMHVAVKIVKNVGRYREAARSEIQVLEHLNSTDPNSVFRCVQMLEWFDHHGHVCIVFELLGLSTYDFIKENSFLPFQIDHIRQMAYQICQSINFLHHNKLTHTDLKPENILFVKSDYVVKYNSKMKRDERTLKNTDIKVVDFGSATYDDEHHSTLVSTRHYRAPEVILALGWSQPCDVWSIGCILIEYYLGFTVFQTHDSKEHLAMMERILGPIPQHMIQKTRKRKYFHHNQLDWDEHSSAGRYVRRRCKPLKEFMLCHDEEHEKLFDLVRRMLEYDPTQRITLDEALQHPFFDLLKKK
Chain of Latent membrane protein 1 (P03230 whole entry): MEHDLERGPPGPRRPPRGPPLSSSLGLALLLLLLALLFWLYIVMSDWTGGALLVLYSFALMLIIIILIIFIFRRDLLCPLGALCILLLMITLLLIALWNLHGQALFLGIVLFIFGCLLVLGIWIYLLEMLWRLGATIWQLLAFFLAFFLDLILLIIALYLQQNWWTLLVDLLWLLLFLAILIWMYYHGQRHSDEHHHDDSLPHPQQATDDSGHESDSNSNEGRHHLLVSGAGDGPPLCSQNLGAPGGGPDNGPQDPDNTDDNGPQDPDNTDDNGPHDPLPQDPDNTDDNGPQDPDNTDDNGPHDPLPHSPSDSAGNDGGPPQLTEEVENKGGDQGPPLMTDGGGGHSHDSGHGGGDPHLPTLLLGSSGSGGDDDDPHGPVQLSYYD

**Q.** For O=C1CC(c2ccc(Cl)cc2Cl)Cc2[nH]c3ccc(Cl)cc3c(=O)c21 (stereo not drawn), which Ki [1] is on record?
**A.** 7940 nM (active)

**Q.** And the Ki [2]?
**A.** 5010 nM (active)

**Q.** What does the source list for CC(C)(C)c1ccc(C(=O)N2CCC(=O)N(C(CO)Cc3ccccc3)CC2)cc1 (stereo not drawn)?
**A.** EC50 [3]: > 53000 nM (inactive); AC50 [4]: 347000 nM (active); AC50 (HEK293): 173000 nM (active)

**Q.** Which EC50 [5] does the source give for Cc1ccccc1C(=O)O/N=C(\N)c1ccccc1 here?
**A.** 2720 nM (active)

**Q.** And the AC50 [6]?
**A.** 62500 nM (active)

**Q.** And the EC50 (cells [7])?
**A.** > 67500 nM (inactive)

**Q.** And the AC50 [8]?
**A.** 60900 nM (active)

**Q.** And the EC50 [9]?
**A.** 3420 nM (active)

**Q.** And the EC50 [10]?
**A.** > 67500 nM (inactive)

**Q.** What does the source list for C#CCOc1ccc(C2C3=C(O)OCC3=Nc3cc4c(cc32)OCO4)cc1OC (stereo not drawn)?
**A.** EC50 [11]: 231 nM (active); EC50 [12]: < 100 nM (active); EC50 (BJ [13]): 2720 nM (inconclusive); EC50 [14]: 234 nM (active); EC50 (cells [15]): 371 nM (active); EC50 [16]: < 100 nM (active); EC50 [17]: < 100 nM (active); EC50 [18]: 900 nM (inconclusive); EC50 (BJ [19]): < 104 nM (active); EC50 (BJ [20]): 942 nM (active); IC50 [21]: 47.1 nM (active); EC50 (BJ [22]): 3140 nM (inconclusive)
